This assay has as its target PD-1/PD-L1 protein/protein interaction (Homo sapiens (Human), UniProt Q9NZQ7). Put plainly: PD-1/PD-L1 Homogeneous Time-Resolved Fluorescence (HTRF) Binding Assay. Conditions: recombinant human PD-L1 (19-238) His-tag, human PD-1 (25-167) Fc tag; 25° C., PBS pH 7.4. The method, then: Example A. PD-1/PD-L1 Homogeneous Time-Resolved Fluorescence (HTRF) Binding Assay
The assays were conducted in a standard black 384-well polystyrene plate with a final volume of 20 μL. Inhibitors were first serially diluted in DMSO and then added to the plate wells before the addition of other reaction components. The final concentration of DMSO in the assay was 1%. The assays were carried out at 25° C. in the PBS buffer (pH 7.4) with 0.05% Tween-20 and 0.1% BSA. Recombinant human PD-L1 protein (19-238) with a His-tag at the C-terminus was purchased from AcroBiosystems (PD1-H5229). Recombinant human PD-1 protein (25-167) with Fc tag at the C-terminus was also purchased from AcroBiosystems (PD1-H5257). PD-L1 and PD-1 proteins were diluted in the assay buffer and 10 μL was added to the plate well. Plates were centrifuged and proteins were preincubated with inhibitors for 40 minutes. The incubation was followed by the addition of 10 μL of HTRF detection buffer supplemented with Europium cryptate-labeled anti-human IgG (PerkinElmer-AD0212) specific for Fc and anti-His antibody conjugated to SureLight®-Allophycocyanin (APC, PerkinElmer-AD0059H). After centrifugation, the plate was incubated at 25° C. for 60 min. before reading on a PHERAstar FS plate reader (665 nm/620 nm ratio). Final concentrations in the assay were […], 10 nM PD-L1, 1 nM europium anti-human IgG and 20 nM anti-His-Allophycocyanin. IC50 determination was performed by fitting the curve of percent control activity versus the log of the inhibitor concentration using the GraphPad Prism 5.0 software.
Data obtained for the Example compounds using the PD-1/PD-L homogenous time-resolved fluorescence (HTRF) binding assay described in Example A is provided in Table 1.
PD-1/PD-L1 protein/protein interaction, sequence (Q9NZQ7 19-238): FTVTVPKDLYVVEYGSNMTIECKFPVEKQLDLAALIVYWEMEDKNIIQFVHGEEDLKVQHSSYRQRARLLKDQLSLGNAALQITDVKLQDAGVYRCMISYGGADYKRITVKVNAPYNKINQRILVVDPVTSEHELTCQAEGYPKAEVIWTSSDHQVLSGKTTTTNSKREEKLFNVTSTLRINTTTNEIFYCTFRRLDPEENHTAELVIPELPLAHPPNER
For orientation: IC50 means the concentration at which inhibition is half-maximal. With `CCOc1cccc(-c2cccc(-c3nc4c(s3)CNCC4)c2C)c1` [Example 33, 2-(3′-ethoxy-2-methylbiphenyl-3-yl)-4,5,6,7-tetrahydro[1,3]thiazolo[5,4-c]pyridine], the IC50 is at most 100 nM.

Take `Cc1c(C2=CCCCC2)cccc1-c1nc2c(s1)CNCC2` [Example 32, 2-(3-cyclohex-1-en-1-yl-2-methylphenyl)-4,5,6,7-tetrahydro[1,3]thiazolo[5,4-c]pyridine]: the half-maximal inhibitory concentration (IC50) was at most 100 nM.

For `Cc1c(-c2ccccc2)cccc1-c1nc2c(o1)CNCC2` [Example 22, 2-(2-methylbiphenyl-3-yl)-4,5,6,7-tetrahydro[1,3]oxazolo[5,4-c]pyridine], the half-inhibitory concentration (IC50) was at most 100 nM.

With `Cc1c(-c2ccccc2)cccc1-c1nc2c(s1)CN(C)CC2` [Example 3, 5-methyl-2-(2-methylbiphenyl-3-yl)-4,5,6,7-tetrahydro[1,3]thiazolo[5,4-c]pyridine], the IC50 was at most 100 nM.

Consider `Cc1c(-c2ccccc2)cccc1-c1nc2c(s1)CN(C1CCC(C(=O)O)CC1)CC2` (centres unmarked) [Example 7, 4-[2-(2-methylbiphenyl-3-yl)-6,7-dihydro[1,3]thiazolo[5,4-c]pyridin-5(4H)-yl]cyclohexanecarboxylic acid], for which the IC50 was at most 100 nM.

For the origin of these results see US11608337B2, “Heterocyclic compounds as immunomodulators” (Incyte Corporation, priority 2016, dated 2023).
